Assay results reported in patent publication US20250263404A1, “AMINOPYRIDINES AS ACTIVATORS OF PI3 KINASE” (UCL Business Ltd, priority 2021, published 2025).

Experiments:
E545K mutant of p110α = molecular target: T1, E545K mutant of p110α (Homo sapiens, UniProt P42336, E545K); assay: ADP-Glo kinase assay, oncogenic mutant E545K; format: biochemical; conditions: mutant insensitive to pY
T1 construct: Full-length p110α was expressed in a complex with full-length p85α (for biochemistry and HDX-MS); 6xHis followed by TEV protease site (N); made in house; host or cells: Spodoptera frugiperda Sf9 (plasmid OP663)
T1 sequence (P42336 whole entry E545K): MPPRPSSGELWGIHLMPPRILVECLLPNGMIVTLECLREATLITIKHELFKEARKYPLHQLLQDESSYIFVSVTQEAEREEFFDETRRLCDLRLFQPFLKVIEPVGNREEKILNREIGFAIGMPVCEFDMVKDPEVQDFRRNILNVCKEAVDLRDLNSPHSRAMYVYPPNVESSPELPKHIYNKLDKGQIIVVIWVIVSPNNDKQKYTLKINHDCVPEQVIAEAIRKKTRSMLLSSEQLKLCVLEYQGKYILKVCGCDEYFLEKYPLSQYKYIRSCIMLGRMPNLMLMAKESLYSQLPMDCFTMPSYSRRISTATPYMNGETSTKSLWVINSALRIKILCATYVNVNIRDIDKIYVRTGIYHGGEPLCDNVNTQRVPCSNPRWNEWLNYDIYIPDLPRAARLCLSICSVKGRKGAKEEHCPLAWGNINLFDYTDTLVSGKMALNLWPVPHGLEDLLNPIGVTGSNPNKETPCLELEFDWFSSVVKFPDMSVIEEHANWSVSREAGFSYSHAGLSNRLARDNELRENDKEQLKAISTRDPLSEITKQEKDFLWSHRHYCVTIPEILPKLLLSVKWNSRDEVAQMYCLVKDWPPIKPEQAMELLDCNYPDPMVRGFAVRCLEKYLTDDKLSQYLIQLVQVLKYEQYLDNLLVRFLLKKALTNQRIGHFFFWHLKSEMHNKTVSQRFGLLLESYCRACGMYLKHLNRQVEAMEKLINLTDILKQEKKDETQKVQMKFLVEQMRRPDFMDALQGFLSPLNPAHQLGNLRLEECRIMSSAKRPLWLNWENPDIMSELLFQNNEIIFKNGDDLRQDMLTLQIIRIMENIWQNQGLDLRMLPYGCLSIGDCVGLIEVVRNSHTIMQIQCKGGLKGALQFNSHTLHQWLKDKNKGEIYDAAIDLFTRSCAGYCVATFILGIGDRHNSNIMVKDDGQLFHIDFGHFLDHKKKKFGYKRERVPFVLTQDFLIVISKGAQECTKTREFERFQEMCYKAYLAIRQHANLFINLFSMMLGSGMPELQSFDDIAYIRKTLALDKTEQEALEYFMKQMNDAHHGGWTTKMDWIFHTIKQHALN
T1 sequence (P27986 whole entry partner): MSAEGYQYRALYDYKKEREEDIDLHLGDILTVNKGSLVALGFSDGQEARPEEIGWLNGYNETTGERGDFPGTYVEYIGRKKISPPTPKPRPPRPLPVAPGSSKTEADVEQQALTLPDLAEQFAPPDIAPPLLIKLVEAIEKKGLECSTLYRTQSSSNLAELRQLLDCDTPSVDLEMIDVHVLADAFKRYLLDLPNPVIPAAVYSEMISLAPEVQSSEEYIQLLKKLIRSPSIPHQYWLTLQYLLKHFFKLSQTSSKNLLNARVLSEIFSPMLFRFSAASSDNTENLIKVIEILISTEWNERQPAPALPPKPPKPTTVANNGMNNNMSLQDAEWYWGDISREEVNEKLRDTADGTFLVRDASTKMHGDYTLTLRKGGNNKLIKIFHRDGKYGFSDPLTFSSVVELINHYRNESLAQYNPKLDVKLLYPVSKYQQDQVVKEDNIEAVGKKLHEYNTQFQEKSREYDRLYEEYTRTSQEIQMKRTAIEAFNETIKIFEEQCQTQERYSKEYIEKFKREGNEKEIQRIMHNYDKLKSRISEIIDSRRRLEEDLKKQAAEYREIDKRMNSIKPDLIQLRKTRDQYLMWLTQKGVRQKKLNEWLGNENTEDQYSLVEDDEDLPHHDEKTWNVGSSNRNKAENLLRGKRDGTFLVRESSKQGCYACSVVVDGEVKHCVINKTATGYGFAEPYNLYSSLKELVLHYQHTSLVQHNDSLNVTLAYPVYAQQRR
Experimental: Co-stimulation of 1938 with pY led to an additive activatory effect for G106V, but not for the N345K and E545K mutants (FIG. 1f/FIG. 22f).
Kinase reactions were performed with ADP-Glo kinase assay kit (Promega Corporation). The enzyme, substrate and compounds were diluted in reaction buffer (20 mM HEPES, 50 mM NaCl, 50 mM KCl, 3 mM MgCl2, 1 mM EGTA, 1 mM TCEP, pH 7.4). Final concentrations of PI3Kα and PI3Kδ used were 25 nM and 50 nM for PI3Kβ. Liposomes (5% brain PI(4,5)P2, 20% brain phosphatidylserine, 45% brain phosphatidylethanolamine, 15% brain phosphatidylcholine, 10% cholesterol, 5% sphingomyelin (Avanti Polar Lipids)) were used at a final concentration of 1 mg/ml. The pY sequence is ESDGG(pY)[…](pY)[…].
For characterisation of the effects of 1938 on in vitro PI3K enzymology, all reactions were performed at room temperature with 384 white-polystyrene plates (Corning #3574). The final DMSO concentration in the assay was between 0.5%-1.8%. The reaction mixture contained 2 μl PI3K enzyme, 2 μl compound and/or pY and 2 μl of liposome substrate mixed with ATP. ATP was used at a final concentration of 200 μM, unless otherwise stated. The enzyme and compounds were pre-incubated for 10 min prior to addition of substrate. […] For enzyme kinetic calculations, data was expressed as velocity (pmol of ADP generated/sec). […]

PI3Kα-WT MEFs = assay: Cell cycle progression by EdU incorporation in MEFs; format: cell-based, mouse
Experimental: Click-IT EdU strategy was used according to manufacturer instructions (Sigma-Aldrich #BCK-FC488-50). Briefly, MEFs were seeded at 50,000 cells per well in 6-well plates in DMEM supplemented with 10% FBS and 1% P/S, and allowed to attach overnight. The next day, cells were serum-starved for 5 h prior to compound addition in fresh serum-free DMEM. At different time points, cells were pulsed for 3 h with 10 μM EdU, followed by collection by trypsinization and fixation with 3.7% FA in PBS for 15 min in the dark, washed in 3% BSA and permeabilized in 1× saponin-based permeabilization buffer for 20 min in the dark. EdU was then detected using the FAM-azide assay cocktail for 30 min in the dark. Cells were washed twice in 1× saponin-based permeabilization buffer followed by analysed with flow cytometer (Novocyte Advanteon flow cytometer, Agilent).

PI3Kα = PI3Kα (Homo sapiens, UniProt P42336); assay: ADP-Glo in vitro lipid kinase assay, PI3Kα; format: biochemical; design: Full-length p110α was expressed in a complex with full-length p85α (for biochemistry and HDX-MS); 6xHis followed by TEV protease site (N); made in house; host or cells: Spodoptera frugiperda Sf9 (baculovirus co-infection; plasmids OP831 and OP809)
Chain of PI3Kα (P42336 whole entry, the tested form may be a part): as the sequence (P42336 whole entry E545K) above, with K545E counted along it
Chain of PI3Kα (P27986 whole entry partner, the tested form may be a part): as the sequence (P27986 whole entry partner) above
Experimental: The effect of 1938 on the in vitro lipid kinase activity of p85α in complex with p110α, p110β or p110δ (further referred to as PI3Kα, PI3Kβ and PI3Kδ) was tested. As a positive control, a bis-phosphorylated phosphopeptide (a PDGF-receptor-derived peptide phosphorylated on Tyr-740 and Tyr-751, hereafter referred to as pY peptide) was used to mimic engagement of the p85α SH2 domains with tyrosine-phosphorylated peptides in membrane-bound receptors and adaptor proteins, known to activate the PI3Kα complex.
Kinase reactions were performed with ADP-Glo kinase assay kit (Promega Corporation). The enzyme, substrate and compounds were diluted in reaction buffer (20 mM HEPES, 50 mM NaCl, 50 mM KCl, 3 mM MgCl2, 1 mM EGTA, 1 mM TCEP, pH 7.4). Final concentrations of PI3Kα and PI3Kδ used were 25 nM and 50 nM for PI3Kβ. Liposomes (5% brain PI(4,5)P2, 20% brain phosphatidylserine, 45% brain phosphatidylethanolamine, 15% brain phosphatidylcholine, 10% cholesterol, 5% sphingomyelin (Avanti Polar Lipids)) were used at a final concentration of 1 mg/ml.
For compound profiling, the reaction mixture contained 2 μl PI3K enzyme, 2 μl compound and/or pY and 2 μl of liposome substrate mixed with ATP. ATP was used at a final concentration of 500 μM for PI3Kα and PI3Kβ and at 200 μM for PI3Kδ, unless otherwise stated. The final DMSO concentration in the assay was 1%. The experiments were performed at room temperature for 3 h using 384 white-polystyrene plates (Corning #3824) before addition of 6 μl of ADP-Glo R1 to terminate the reaction. The plate was incubated for 45 min, followed by addition of 12 μl of ADP-Glo R2 and incubated further for 60 min in the dark. Luminescence was read using a Sense (Hidex) plate reader. […] All analyses were performed using GraphPad Prism 7.
For characterisation of the effects of 1938 on in vitro PI3K enzymology, all reactions were performed at room temperature with 384 white-polystyrene plates (Corning #3574). The final DMSO concentration in the assay was between 0.5%-1.8%. The reaction mixture contained 2 μl PI3K enzyme, 2 μl compound and/or pY and 2 μl of liposome substrate mixed with ATP. ATP was used at a final concentration of 200 μM, unless otherwise stated. The enzyme and compounds were pre-incubated for 10 min prior to addition of substrate. The reaction was allowed to proceed for 45 min at room temperature, before addition of 6 μl of ADP-Glo R1 to terminate the reaction. The plate was incubated for 60 min, followed by addition of 12 μl of ADP-Glo R2 and incubated further for 60 min in the dark. For enzyme kinetic calculations, data was expressed as velocity (pmol of ADP generated/sec). ADP-ATP standard curves were performed according to the manufacturer's instructions, and all analyses were performed using GraphPad Prism 8.

## CCN1CCN(c2ccc(Nc3cc(Nc4cccc5c4N(C(C)=O)CC5)ccn3)cc2)CC1 [Example 1938]
E545K mutant of p110α
  activation of E545K mutant: further activated
PI3Kα-WT MEFs
  cell cycle progression (EdU incorporation): induced cell cycle progression
PI3Kα; 1938 plus pY
  PI3Kα activation in combination with a saturating concentration of pY: synergistic PI3Kα activation
PI3Kα; ATP titration
  maximum rate of reaction (Vmax) of PI3Kα: increased
  turnover number (Kcat) of PI3Kα: increased
PI3Kα; concentration-dependent
  effect on in vitro lipid kinase activity of PI3Kα: activate PI3Kα
PI3Kα; in vitro PI3Kα activation
  EC50: 58 ± 28 µM
PI3Kα; relative to 1938
  Max. activity relative to 1938: 100%
PI3Kα; relative to pY control
  Max. activity relative to pY ctrl: 397 ± 60%
